In one data set the test system is C. albicans G5. Description: microbe, parasite or virus in culture. The data set is classed as cell-based. The note with it: Candida albicans, G5. A digest of the protocol: (§1)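 CLSI microbroth dilution in RPMI1640 using final drug concentrations of 0.0156–64 μg/mL. C. albicans inoculum was 1 × 10^3 CFU/mL, and Candida plates were incubated at 35°C for 24 h. MIC was read as visible growth inhibition versus the drug-free control, in duplicate.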

The subject of a further data set is C. albicans Gu5. Description: microbe, parasite or virus in culture. The format is cell-based. As to conditions: Candida albicans, GU5. A digest of the protocol:
as §1

The subject of the next data set is C. albicans SC5314. Description: RNA-seq transcriptional analysis. The data set is classed as cell-based, Candida albicans. Here is the method:
C. albicans SC5314 cells were inoculated into RPMI 1640 medium at a concentration of 1 × 10^7 cells/mL and incubated at 30°C for 6 h. The cells were then harvested, and RNA extraction was performed with the Yeast RNA Kit (OMEGA, Guangzhou, China). RNA purity was evaluated using a Nanodrop-2000, and RNA integrity was assessed using the RNA Nano 6000 detection kit. RNA-Seq libraries are prepared using NEB Next Ultra RNA Library Prep Kit (NEB, MA, USA) for Illumina. The cDNA library quality was quantified first by using Qubit 2.0 Fluorometer, detected on Agilent 2100 bioanalyzer. Clustering was performed in the cBot cluster generation system. After cluster generation, the library preparations were sequenced on the Illumina Novaseq platform. Library construction and sequencing were performed by Novogene (Beijing, China). Each sample was analyzed in triplicate.
The raw data in fastq format were first processed by an internal perl script. In this step, clean data were obtained by applying various processing methods. […] The clean reads were individually mapped to the C. albicans SC5314 reference genome using HISAT2 (v2.0.5). The fragments per kilobase of transcript per million mapped reads (FPKM) value was calculated for each gene, and the read counts were mapped to the genes. […] Genes with an adjusted P value < 0.05 and |log2FoldChange| > 1 as detected by DESeq2 were considered DEGs. […]

A further data set relates to SOD. Description: SOD activity in treated cells. The data set is classed as cell-based, Candida albicans. The note with it: 0.5 μg/mL or above, 6 h. Here is the method:
Determination of SOD activity. SOD activity was measured using the Superoxide Dismutase Activity Assay Kit (Njjcbio, Nanjing, China) following the manufacturer's instructions. An overnight culture of C. albicans SC5314 was adjusted to 1 × 10^7 cells/mL with RPMI1640 medium and treated with 19ak at a final concentration of 0, 0.125, 0.25, 0.5, or 1 μg/mL for 6 h. After collection by centrifugation, the cells were broken by glass beads in extraction buffer and centrifuged at 4°C. The absorbance of the supernatant of each sample was measured with a microplate reader at450 nm.
Determination of catalase (CAT) activity. CAT activity was measured by using a Catalase Assay Kit (Solarbio, Beijing, China) following the manufacturer's instructions. An overnight culture of C. albicans SC5314 was adjusted to 1 × 10^6 cells/mL with RPMI1640 medium and treated as described above for SOD activity.
The decomposition of H2O2 is directly accompanied by a decrease in absorbance at 240 nm, and the difference in absorbance per unit time (ΔA240) is a measure of […]
Quantitative real-time polymerase chain reaction (qPCR) analysis. C. albicans SC5314 cells (1 × 10^6 cells/mL) were incubated with or without 19ak (0.5,2 μg/mL) in RPMI1640 medium for 6 h. Total RNA was extracted using the hot phenol method, and the RNA quality was analyzed using a spectrophotometer (Eppendorf, Hamburg, Germany). […]

The next data set concerns G. mellonella. Description: Toxicity of 19ak in G. mellonella larvae. The data set is classed as in vivo, Galleria mellonella. As to conditions: 10 μg per larva, 4 days. How it is done: Larvae of normal size and in good condition were injected with 10 μL of 19ak (1 mg/mL) or PBS. The survival of the larvae was monitored daily for 4 days.
Data set [1] has as its system mitochondrial respiratory chain complex I. Description: Mitochondrial respiratory chain complex activity in isolated mitochondria. The data set is classed as biochemical, Candida albicans. Here is the method: (§2) Mitochondrial isolation and detection of mitochondrial respiratory chain complex activity. Mitochondria were isolated from C. albicans spheroplasts as previously described (8). A dilution series of 19ak was added to the mitochondrial suspensions to obtain final concentrations of 0, 0.125, 0.25, 0.5, and 1 μg/mL and incubated for 6 h at 30°C. The activities of mitochondrial respiratory chain complexes I-IV were determined by using the Micro Mitochondrial Respiratory Chain Complex Activity Assay Kit (Solarbio, Beijing, China). The concentration of protein was determined using the BCA Protein Assay Kit (Beyotime, Haimen, China).
(§3) Mitochondrial complex activity was expressed as nmol/min/mg protein. […]

In data set [2] the test system is mitochondrial respiratory chain complex III. The description is as above. The format is biochemical, Candida albicans. The note with it: purified mitochondria, 0.125-1 μg/mL, 6 h. How it is done: as §2, §3

The structures appear in SMILES notation. In brackets after ≈: the same amount, converted by molar mass.

Turning to `C/C(=N\NC(=S)N(C)C)c1ccccn1` [Compound 19ak], the MIC80 stood at 1 µg/mL (≈ 4.5 µM) against C. albicans G5 and 0.25 µg/mL (≈ 1.12 µM) in the data set on C. albicans Gu5. Moreover, the figures for the “Expression of genes involved in iron and zinc acquisition” value in the data set on C. albicans SC5314 (high dose (2 μg/mL)) and in the data set on C. albicans SC5314 (low dose (0.5 μg/mL)) were “downregulated” and “strongly induced”, respectively. The SOD activity entry with SOD was “increased”. Besides, the “Survival of uninfected larvae (toxicity)” value with G. mellonella is given as “all treated larvae were still alive”. The “Reduction of NADH dehydrogenase activity with extra metal ions” value in data set [1] (100 μM metal ions, 0.125 or 1 μg/mL 19ak) is given as “partially restored”. Also, the “Activity of mitochondrial respiratory chain complex I (CI, NADH dehydrogenase)” value in data set [1] (purified mitochondria, 0.125-1 μg/mL, 6 h) is “significantly inhibited”. In data set [2], the “Activity of mitochondrial respiratory chain complex III” value is reported as “slightly inhibited”.

The record behind these values is article PMC9241695, “Selective Metal Chelation by a Thiosemicarbazone Derivative Interferes with Mitochondrial Respiration and Ribosome Biogenesis in Candida albicans” (Microbiology Spectrum, 2022).
